This passage reports IC50 results from patent US10087166B2, “Cyclic amine azaheterocyclic carboxamides” (Merck Patent GmbH, priority 2010, dated 2018).

The assay has as its target T1, P70S6K (Homo sapiens, UniProt P23443, T412E).
T1 construct: purchased Millipore
The experiment in a line: P70S6K enzyme assay. The assay is classed as biochemical. As to conditions: P70S6K T412E mutant 3 nM, 24 μM ATP, FITC-AHA-AKRRRLSSLRA-OH substrate, 90 min at 25° C.; read-out: IC50p70S6K. As to the method: P70S6K inhibitor compounds are diluted and plated in 96 well plates. A reaction mixture including the following components is then added to the compound plate to initiate the enzyme reaction; P70S6K (3 nM, T412E mutant, Millipore) is mixed with 24 μM ATP in an assay buffer containing 100 mM Hepes (pH 7.5), 5 mM MgCl2, 1 mM DTT, 0.015% Brij and 1 μM of the substrate peptide FITC-AHA-AKRRRLSSLRA-OH (derived from the S6 ribosomal protein sequence, FITC=fluorescein isothiocyanate, AHA=6-aminohexanoic acid). The reaction is incubated for 90 min at 25° C., before the addition of 10 mM EDTA to stop the reaction. The proportion of substrate and product (phosphorylated) peptide is analyzed on a Caliper Life Sciences Lab Chip 3000, using a pressure of −1.4 psi, and upstream and downstream voltages of −3000 and −700 respectively. Product peaks are resolved before substrate peaks on the resulting chromatograms.
To assess the inhibitory potential of the compounds, IC50-values were determined, as shown in Chemical Synthesis section above.

T1 sequence (P23443 whole entry T412E): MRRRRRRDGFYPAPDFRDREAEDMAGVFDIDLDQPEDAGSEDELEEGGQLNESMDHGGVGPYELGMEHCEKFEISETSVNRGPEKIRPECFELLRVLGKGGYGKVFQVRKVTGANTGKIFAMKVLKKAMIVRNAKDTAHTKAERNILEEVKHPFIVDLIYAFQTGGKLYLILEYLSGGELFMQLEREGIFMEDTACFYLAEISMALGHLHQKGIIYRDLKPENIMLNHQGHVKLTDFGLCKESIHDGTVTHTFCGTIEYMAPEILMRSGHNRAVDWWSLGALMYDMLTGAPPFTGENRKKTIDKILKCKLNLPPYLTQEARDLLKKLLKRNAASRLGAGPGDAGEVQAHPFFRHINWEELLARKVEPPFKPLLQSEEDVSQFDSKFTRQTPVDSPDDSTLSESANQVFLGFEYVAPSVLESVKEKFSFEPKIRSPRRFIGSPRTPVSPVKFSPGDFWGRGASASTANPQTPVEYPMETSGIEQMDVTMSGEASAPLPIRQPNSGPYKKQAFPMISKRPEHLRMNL

Consider `NC(=O)c1cccc2c(N[C@@H]3CNCC[C@H]3c3cccc(C(F)(F)F)c3)ncnc12` (racemic) [compound 30, 4-((4-(3-(trifluoromethyl)phenyl)piperidin-3-yl)amino)quinazoline-8-carboxamide], for which the IC50 is 2.1 nM. In the case of `NC(=O)c1cccc2c(N[C@@H]3CNC[C@H]3c3ccc(Cl)c(F)c3)ncnc12` [compound 101, 4-(((3S,4R)-4-(4-chloro-3-fluorophenyl)pyrrolidin-3-yl)amino)quinazoline-8-carboxamide], the IC50 turned out to be 1.1 nM. In the case of `CCc1nc(N[C@@H]2CNCC[C@H]2c2ccccc2)c2cccc(C(N)=O)c2n1` (racemic) [compound 39, 2-ethyl-4-((4-phenylpiperidin-3-yl)amino)quinazoline-8-carboxamide] it was 4.8 nM; in that of `NC(=O)c1cccc2c(N[C@@H]3CNC[C@H]3c3ccc4c(c3)CCO4)ncnc12` [compound 91, 4-(((3S,4R)-4-(2,3-dihydrobenzofuran-5-yl)pyrrolidin-3-yl)amino)quinazoline-8-carboxamide], 53 nM; in that of `NC(=O)c1cccc2c(N[C@H]3CNC[C@@H]3c3ccc4ncccc4c3)ncnc12` (racemic) [compound 69], 3.2 nM. As for `COc1ccc([C@@H]2CNC[C@H]2Nc2ncnc3c(C(N)=O)cccc23)cc1F` [compound 62, 4-(((3S,4R)-4-(3-fluoro-4-methoxyphenyl)pyrrolidin-3-yl)amino)quinazoline-8-carboxamide], the figure is 1.5 nM; as for `COc1ccccc1C1CNCC1Nc1ccnc2c(C(N)=O)cccc12` (stereo not drawn) [compound 23, 4-((4-(2-methoxyphenyl)pyrrolidin-3-yl)amino)quinoline-8-carboxamide], 46 nM; as for `NC(=O)c1cccc2c(N[C@@H]3CNCC[C@H]3c3cc(F)cc(F)c3)ncnc12` (racemic) [compound 123], 2.3 nM. In the case of `Cc1cc([C@H]2CNC[C@@H]2Nc2ncnc3c(C(N)=O)cccc23)ccc1F` (racemic) [compound 74] it was 8.8 nM. As for `NC(=O)c1cccc2c(N[C@H]3CNC[C@@H]3c3ccc(-c4ccccc4)c(F)c3)ncnc12` (racemic) [compound 120], the IC50 was 1.4 nM. For the compound `Cc1nc(N[C@@H]2CNCC[C@H]2c2ccc(C(F)(F)F)cc2)c2cccc(C(N)=O)c2n1` (racemic) [compound 141], the IC50 stood at 2.9 nM. For the compound `NC(=O)c1cccc2c(N[C@H]3CNC[C@@H]3c3ccccc3Cl)ncnc12` [compound 65, 4-(((3R,4S)-4-(2-chlorophenyl)pyrrolidin-3-yl)amino)quinazoline-8-carboxamide], the IC50 stood at 340 nM. As for `NC(=O)c1cccc2c(NC3CNCC3c3ccccc3F)ccnc12` (stereo not drawn) [compound 22, 4-((4-(2-fluorophenyl)pyrrolidin-3-yl)amino)quinoline-8-carboxamide], the figure is 9.4 nM; as for `CCc1nc(N[C@@H]2CNCC[C@H]2c2ccc(F)cc2)c2cccc(C(N)=O)c2n1` (racemic) [compound 133], 3.6 nM; as for `Cc1nc(N[C@@H]2CNCC[C@H]2c2cccc(F)c2)c2cccc(C(N)=O)c2n1` (racemic) [compound 37, 4-((4-(3-fluorophenyl)piperidin-3-yl)amino)-2-methylquinazoline-8-carboxamide], 2.5 nM. As for `NC(=O)c1cccc2c(N[C@@H]3CNCC[C@H]3c3ccccc3)ncnc12` (racemic) [compound 27, 4-((4-phenylpiperidin-3-yl)amino)quinazoline-8-carboxamide], the figure is 6.3 nM; as for `Cc1nc(N[C@H]2CNC[C@@H]2c2ccccc2Cl)c2cccc(C(N)=O)c2n1` (racemic) [compound 98], 2.7 nM; as for `Cc1cc(C(N)=O)c2ncnc(NC3CNCC3c3ccccc3)c2c1` (racemic) [compound 15, 6-methyl-4-((4-phenylpyrrolidin-3-yl)amino)quinazoline-8-carboxamide], 349 nM. In the case of `NC(=O)c1cccc2c(N[C@@H]3CNC[C@H]3c3ccc(OC(F)(F)F)cc3)ncnc12` [compound 61, 4-(((3S,4R)-4-(4-(trifluoromethoxy)phenyl)pyrrolidin-3-yl)amino)quinazoline-8-carboxamide] it was 1.5 nM; in that of `NC(=O)c1cccc2c(N[C@@H]3CNC[C@H]3C(=O)Nc3ccccc3)ncnc12` (relative stereo) [compound 26, trans-4-(4-Phenylcarbamoyl-pyrrolidin-3-ylamino)-quinazoline-8-carboxylic acid amide], 22 nM.

Consider `NC(=O)c1cccc2c(N[C@H]3CNC[C@@H]3c3cccc(Cl)c3)ncnc12` [compound 95, 4-(((3R,4S)-4-(3-chlorophenyl)pyrrolidin-3-yl)amino)quinazoline-8-carboxamide], for which the IC50 worked out at 48 nM. As for `CS(=O)(=O)c1ccc([C@H]2CNC[C@@H]2Nc2ncnc3c(C(N)=O)cccc23)cc1` (racemic) [compound 111], the IC50 amounted to 7.5 nM. As for `COc1cccc([C@@H]2CCNC[C@H]2Nc2ncnc3c(C(N)=O)cccc23)c1` (racemic) [compound 135], the figure is 4.3 nM; as for `CCc1nc(N[C@@H]2CNC[C@H]2c2cccc(F)c2)c2cccc(C(N)=O)c2n1` (racemic) [compound 107], 5.5 nM. Consider `Cc1nc(N[C@H]2CNC[C@@H]2c2cccc(F)c2)c2cccc(C(N)=O)c2n1` [compound 83, 4-(((3R,4S)-4-(3-fluorophenyl)pyrrolidin-3-yl)amino)-2-methylquinazoline-8-carboxamide], for which the IC50 stood at 160 nM. In the case of `NC(=O)c1cccc2c(N[C@H]3CNC[C@@H]3c3ccc4c(c3)CCO4)ncnc12` [compound 90, 4-(((3R,4S)-4-(2,3-dihydrobenzofuran-5-yl)pyrrolidin-3-yl)amino)quinazoline-8-carboxamide] it was 4 nM; in that of `N#Cc1cccc([C@@H]2CNC[C@H]2Nc2ncnc3c(C(N)=O)cccc23)c1` [compound 88, 4-(((3S,4R)-4-(3-cyanophenyl)pyrrolidin-3-yl)amino)quinazoline-8-carboxamide], 2.4 nM. As for `CCc1nc(N[C@@H]2CNCC[C@H]2c2cccc(F)c2)c2cccc(C(N)=O)c2n1` (racemic) [compound 38, 2-ethyl-4-((4-(3-fluorophenyl)piperidin-3-yl)amino)quinazoline-8-carboxamide], the figure is 1.7 nM; as for `NC(=O)c1cccc2c(N[C@@H]3CNC[C@H]3c3cccc4ccccc34)ncnc12` [compound 79, 4-(((3S,4R)-4-(naphthalen-1-yl)pyrrolidin-3-yl)amino)quinazoline-8-carboxamide], 1.2 nM; as for `NC(=O)c1cccc2c(NC3CNCC3c3ccccc3F)ncnc12` (stereo not drawn) [compound 4, 4-((4-(2-fluorophenyl)pyrrolidin-3-yl)amino)quinazoline-8-carboxamide], 3.5 nM. As for `NC(=O)c1cccc2c(N[C@H]3CNC[C@@H]3c3ccccc3)ncnc12` (racemic) [compound 3, 4-((4-phenylpyrrolidin-3-yl)amino)quinazoline-8-carboxamide], the figure is 4.9 nM. On to `NC(=O)c1cccc2c(N[C@H]3CNC[C@@H]3c3cccc(N4CCCC4)c3)ncnc12` (racemic) [compound 117, 4-(((3R,4S)-4-(3-(pyrrolidin-1-yl)phenyl)pyrrolidin-3-yl)amino)quinazoline-8-carboxamide], for which the IC50 was 5.9 nM. Regarding `NC(=O)c1cccc2c(N[C@H]3CNC[C@@H]3c3cccc(Br)c3)ncnc12` (racemic) [compound 85], the IC50 stood at 1.8 nM.

Take `Cc1nc(NC2CNCC2c2ccccc2)c2cccc(C(N)=O)c2n1` (racemic) [compound 16, 2-methyl-4-((4-phenylpyrrolidin-3-yl)amino)quinazoline-8-carboxamide]: the IC50 came out at 6 nM.

For `NC(=O)c1cccc2c(N[C@H]3CNC[C@H]3c3cccc(OC(F)(F)F)c3)ncnc12` [compound 58, 4-(((3R,4R)-4-(3-(trifluoromethoxy)phenyl)pyrrolidin-3-yl)amino)quinazoline-8-carboxamide], the IC50 is 0.98 nM.

As to `Cc1nc(N[C@@H]2CNCC[C@H]2c2ccccc2F)c2cccc(C(N)=O)c2n1` (racemic) [compound 136], the IC50 worked out at 210 nM. In the case of `NC(=O)c1cccc2c(N[C@H]3CNC[C@@H]3c3cc(F)cc(Cl)c3)ncnc12` (racemic) [compound 114] it was 1.5 nM; in that of `Cc1nc(N[C@@H]2CNC[C@H]2c2cccc(F)c2)c2cccc(C(N)=O)c2n1` [compound 84, 4-(((3S,4R)-4-(3-fluorophenyl)pyrrolidin-3-yl)amino)-2-methylquinazoline-8-carboxamide], 1.7 nM; in that of `NC(=O)c1cccc2c(NC3CNCC3c3cccc(F)c3)ccnc12` (stereo not drawn) [compound 21, 4-((4-(3-fluorophenyl)pyrrolidin-3-yl)amino)quinoline-8-carboxamide], 13 nM.

As to `Cc1nc(N[C@H]2CNC[C@@H]2c2ccc(Cl)c(F)c2)c2cccc(C(N)=O)c2n1` (racemic) [compound 103], the IC50 came to 1.8 nM. In the case of `NC(=O)c1cccc2c(N[C@H]3CNC[C@@H]3c3ccc(Cl)c(F)c3)ncnc12` (racemic) [compound 99] it was 0.088 nM. As for `NC(=O)c1cccc2c(N[C@H]3CNC[C@@H]3c3ccc4c(c3)CCO4)ncnc12` (racemic) [compound 89], the figure is 3.2 nM.
